Data from patent US7476679B2, “Octahydroisoquinoline compounds as opioid receptor modulators” (Research Triangle Institute, priority 2005, dated 2009).
Read-outs that look alike come from different tables or passages of the source.

Key:
Format in all cases: biochemical
human mu opioid receptor = target: T1, human mu opioid receptor (Homo sapiens, UniProt P35372); experiment: Inhibition of agonist (DAMGO) stimulated [35S]GTPγS binding, apparent affinity (Ke)
T1 construct: expressed in transfected cells; host or cells: CHO cells (membrane homogenates)
T1 sequence (P35372 whole entry): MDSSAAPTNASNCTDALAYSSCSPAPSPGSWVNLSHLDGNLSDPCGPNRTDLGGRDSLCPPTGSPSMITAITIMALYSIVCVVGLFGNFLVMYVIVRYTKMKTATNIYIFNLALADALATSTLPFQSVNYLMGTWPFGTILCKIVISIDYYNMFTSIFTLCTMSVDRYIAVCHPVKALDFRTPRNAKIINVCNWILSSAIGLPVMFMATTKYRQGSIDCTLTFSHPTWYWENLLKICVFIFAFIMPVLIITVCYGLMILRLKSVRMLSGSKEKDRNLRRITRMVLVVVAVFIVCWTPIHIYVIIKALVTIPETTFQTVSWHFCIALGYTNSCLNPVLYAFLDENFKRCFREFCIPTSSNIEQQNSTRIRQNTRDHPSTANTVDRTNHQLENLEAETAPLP
Experimental: (§1) Determination of apparent affinity (Ke). The ability of a single concentration of test compound to shift an agonist dose response curve to the right was used to determine its Ke. Agonist activity was determined using [^35S]GTP-γ-S binding in CHO cell membrane homogenates expressing either the human mu, kappa or delta opioid receptor. The subtype selective agonists (D-Ala^2, MePhe^4, Gly-ol^5)enkephalin (DAMGO, mu receptor), D-Pen2,D-Pen5]-enkephalin (DPDPE, delta receptor) or U69,593 (kappa receptor) were run as appropriate. The assays were run in triplicate in 1.4 mL polypropylene tubes (Matrix Technologies, Hudson, N.H.) in 96-well format. Each assay tube contained membrane homogenate, one of seven concentrations of agonist or agonist+test compound, 0.1 nM [^35S]GTP-γ-S and 10 μM GDP in a 50 mM HEPES buffer (pH 7.4). Basal [^35S]GTP-γ-S binding was determined in samples without agonist or test compound. All samples were incubated at room temperature for one hour after which bound radioligand was separated from free via rapid vacuum filtration over GF-B filters with a Brandel Scientific (Gaithersburg, Md.) 96-well harvester. Bound radioactivity was determined with a TopCount 12-detector instrument (Packard Instruments) using standard scintillation counting techniques. The binding data from each assay plate were normalized to basal binding prior to analysis. The EC50s were calculated from a three-parameter logistic curve fit to the data with Prism (version 3.0, GraphPad Software, Inc., San Diego, Calif.).

[1] = target: T2, human kappa opioid receptor (Homo sapiens, UniProt P41145); experiment: Inhibition of agonist (U69,593) stimulated [35S]GTPγS binding, apparent affinity (Ke); conditions: for δ/κ / μ/κ: ratio of Ke values; for δ/κ: δ over κ; for μ/κ: μ over κ
T2 construct: expressed in transfected cells; host or cells: CHO cells (membrane homogenates)
T2 sequence (P41145 whole entry): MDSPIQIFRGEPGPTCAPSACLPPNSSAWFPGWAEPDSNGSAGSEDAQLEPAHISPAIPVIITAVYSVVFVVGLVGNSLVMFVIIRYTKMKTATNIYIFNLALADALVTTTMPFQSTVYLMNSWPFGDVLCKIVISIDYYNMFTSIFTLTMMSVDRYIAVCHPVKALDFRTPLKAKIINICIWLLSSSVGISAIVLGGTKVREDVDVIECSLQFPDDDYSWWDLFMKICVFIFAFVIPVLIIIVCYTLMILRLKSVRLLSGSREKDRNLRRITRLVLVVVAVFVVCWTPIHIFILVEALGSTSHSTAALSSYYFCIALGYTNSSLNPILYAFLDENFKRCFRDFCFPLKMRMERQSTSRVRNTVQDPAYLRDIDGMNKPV
Experimental: as §1

[2] = target: T3, human delta opioid receptor (Homo sapiens, UniProt P41143); experiment: Inhibition of agonist (DPDPE) stimulated [35S]GTPγS binding, apparent affinity (Ke)
T3 construct: expressed in transfected cells; host or cells: CHO cells (membrane homogenates)
T3 sequence (P41143 whole entry): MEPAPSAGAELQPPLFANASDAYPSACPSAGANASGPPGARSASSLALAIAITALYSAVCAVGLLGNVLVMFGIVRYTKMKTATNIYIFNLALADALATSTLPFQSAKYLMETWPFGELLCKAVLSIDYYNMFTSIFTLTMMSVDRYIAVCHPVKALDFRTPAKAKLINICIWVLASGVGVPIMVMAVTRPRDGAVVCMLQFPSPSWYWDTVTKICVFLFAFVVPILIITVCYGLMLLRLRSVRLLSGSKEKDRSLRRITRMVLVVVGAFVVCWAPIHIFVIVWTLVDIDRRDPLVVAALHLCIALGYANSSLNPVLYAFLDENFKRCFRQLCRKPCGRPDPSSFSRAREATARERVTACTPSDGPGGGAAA
Experimental: as §1

[3] = cloned human μ receptor, CHO cell membrane homogenates, agonist DAMGO, 10 μM GDP, mean ± SE, read-out: μ, DAMGO Ke
[4] = cloned human κ receptor, CHO cell membrane homogenates, agonist U69,593, 10 μM GDP, mean ± SE, read-out: κ, U69,593 Ke
[5] = cloned human μ receptor, CHO cell membrane homogenates, agonist DAMGO, 10 μM GDP, mean ± SE
[6] = cloned human κ receptor, CHO cell membrane homogenates, agonist U69,593, 10 μM GDP, mean ± SE
[7] = cloned human δ receptor, CHO cell membrane homogenates, agonist DPDPE, 10 μM GDP, mean ± SE

Row | Structure (SMILES) | Kb (human mu opioid receptor) | Kb [1] | δ/κ [1] | μ/κ [1] | Kb ([2]; cloned human δ receptor, CHO cell membrane homogenates, agonist DPDPE, 10 μM GDP, mean ± SE, read-out: δ, DPDPE Ke) | Kb (human mu opioid receptor; [3]) | Kb [1, 4] | Kb [2] | μ, DAMGO Ke (human mu opioid receptor; [5]) | κ, U69,593 Ke [1, 6] | δ, DPDPE Ke [2, 7]
1 | CN1CCC2(c3cccc(O)c3)CCCCC2(C)C1 (centres unmarked) [6a, N-Methyl-4a-(3-hydroxyphenyl)-8a-methyloctahydroisoquinoline] | 99.4 ± 28.3 nM | 3.37 ± 0.47 nM | 141 | 29 | 477 ± 137 nM | – | – | – | – | – | –
2 | CC12CCC(NC(=O)C3(c4ccccc4)CCCC3)CC1(c1cccc(O)c1)CCN(CCCc1ccccc1)C2 (centres unmarked) [6f, 1-Phenylcyclopentanecarboxylic Acid [4a-(3-Hydroxyphenyl)-8a-methyl-2-(3-phenylpropyl)octahydroisoquinolin-6-yl]amide] | – | – | 3 | 0.8 | – | 1.46 ± 0.15 nM | 1.93 ± 0.48 nM | 6.46 ± 2.3 nM | – | – | –
3 | CC12CCC(NC(=O)CCN3CCCCC3)CC1(c1cccc(O)c1)CCN(CCCc1ccccc1)C2 (centres unmarked) [6d, N-(4a-(3-Hydroxyphenyl)-8a-methyl-2-(3-phenylpropyl)octahydroisoquinolin-6-yl]-3-piperidin-1-yl-propionamide] | – | – | 46 | 154 | – | 41.7 ± 7.8 nM | 0.27 ± 0.08 nM | 12.3 ± 3.1 nM | – | – | –
4 | CC12CCCCC1(c1cccc(O)c1)CCN(CCCc1ccccc1)C2 (centres unmarked) [6c, N-(3-Phenpropyl)-4a-(3-hydroxyphenyl)-8a-methyloctahydroisoquinoline] | – | – | 12 | 0.8 | – | – | – | – | 0.80 ± 0.10 nM | 1.03 ± 0.14 nM | 12.4 ± 2.9 nM
5 | CC12CCC(NC(=O)c3cc4ccccc4s3)CC1(c1cccc(O)c1)CCN(CCCc1ccccc1)C2 (centres unmarked) [6g] | – | – | 2 | 25 | – | – | – | – | 11.3 ± 2.0 nM | 0.46 ± 0.13 nM | 1.01 ± 0.22 nM
6 | CC12CCCCC1(c1cccc(O)c1)CCN(CCc1ccccc1)C2 (centres unmarked) [6b, N-Phenethyl-4a-(3′-hydroxyphenyl)-8a-methyloctahydroisoquinoline] | – | – | 7 | 0.3 | – | 0.84 ± 0.22 nM | 2.84 ± 0.97 nM | 18.9 ± 5.2 nM | – | – | –
7 | CC12CCC(NC(=O)CCN3CCc4ccccc4C3)CC1(c1cccc(O)c1)CCN(CCCc1ccccc1)C2 (centres unmarked) [6e, 3-(3,4-Dihydro-1H-isoquinolin-2-yl)-N-(4a-(3-hydroxyphenyl)-8a-methyl-2-(3-phenylpropyl)octahydroisoquinolin-6-yl]propionamide] | – | – | 21 | 45 | – | 9.82 ± 3.7 nM | 0.22 ± 0.02 nM | 4.56 ± 1.2 nM | – | – | –
